# Test results published in patent US20110190269A1, “GAMMA SECRETASE MODULATORS” (priority 2010, published 2011).
# Counter-ions that a name gives are not always drawn.
# System: γ-secretase
# Test: Cellular γ-secretase assay (inhibition of Aβ42 secretion)
# Type: cell-based
# Conditions: human neuroglioma H4 cells overexpressing human APP, 22 hrs incubation
# How it was run: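 H4 neuroglioma cells overexpressing human APP got a ten-point compound dilution (0.4% DMSO final) for 22 h at 37 °C. Secreted Aβ42 in the supernatant was measured by electrochemiluminescence sandwich immunoassay (capture biotinylated 6E10, detection ruthenylated BAP15). IC50 came from a nonlinear regression fit.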
row,EC50,Structure (SMILES)
1,475 nM,"COc1cc(Nc2nc3c(-c4ccc(C(C)(C)O)c(F)c4)cc(C)cn3n2)ccc1-n1cnc(C)c1 [Example 90, 2-(2-Fluoro-4-(2-(3-methoxy-4-(4-methyl-1H-imidazol-1-yl)phenylamino)-6-methyl-[1,2,4]triazolo[1,5-a]pyridin-8-yl)phenyl)propan-2-ol]"
2,310 nM,"COc1cc(Nc2nc3c(-c4ccc(Cl)cc4C=O)cc(C)cn3n2)ccc1-n1cnc(C)c1 [Example 91, 5-Chloro-2-(2-(3-methoxy-4-(4-methyl-1H-imidazol-1-yl)phenylamino)-6-methyl-[1,2,4]triazolo[1,5-a]pyridin-8-yl)benzaldehyde]"
3,375 nM,"COc1cc(Nc2nc3c(-c4ccc(Cl)cc4CO)cc(C)cn3n2)ccc1-n1cnc(C)c1 [Example 92, (5-Chloro-2-(2-(3-methoxy-4-(4-methyl-1H-imidazol-1-yl)phenylamino)-6-methyl-[1,2,4]triazolo[1,5-a]pyridin-8-yl)phenyl)methanol]"
4,68 nM,"COc1cc(Nc2nc3nc(C)cc(-c4ccc(F)c(Cl)c4)n3n2)ccc1-n1cnc(C)c1 [Example 93, 7-(3-Chloro-4-fluorophenyl)-N-(3-methoxy-4-(4-methyl-1H-imidazol-1-yl)phenyl)-5-methyl-[1,2,4]triazolo[1,5-a]pyrimidin-2-amine]"
5,39 nM,"CCOC(=O)c1cc(-c2ccc(F)c(Cl)c2)n2nc(Nc3ccc(-n4cnc(C)c4)c(OC)c3)nc2n1 [Example 94, Ethyl 7-(3-chloro-4-fluorophenyl)-2-(3-methoxy-4-(4-methyl-1H-imidazol-1-yl)phenylamino)-[1,2,4]triazolo[1,5-a]pyrimidine-5-carboxylate]"
6,84 nM,"COc1cc(Nc2nc3c(-c4cccc(CNC(=O)OC(C)(C)C)c4)cc(C)cn3n2)ccc1-n1cnc(C)c1 [Example 95, tert-Butyl 3-(2-(3-methoxy-4-(4-methyl-1H-imidazol-1-yl)phenylamino)-6-methyl-[1,2,4]triazolo[1,5-a]pyridin-8-yl)benzylcarbamate]"
7,93 nM,"COc1cc(Nc2nc3c(C4=CCN(C(=O)OC(C)(C)C)CC4)cc(C)cn3n2)ccc1-n1cnc(C)c1 [Example 96, tert-Butyl 4-(2-(3-methoxy-4-(4-methyl-1H-imidazol-1-yl)phenylamino)-6-methyl-[1,2,4]triazolo[1,5-a]pyridin-8-yl)-5,6-dihydropyridine-1(2H)-carboxylate]"
8,470 nM,"COc1cc(Nc2nc3c(-c4cccc(CN)c4)cc(C)cn3n2)ccc1-n1cnc(C)c1 [Example 97, 8-(3-(Aminomethyl)phenyl)-N-(3-methoxy-4-(4-methyl-1H-imidazol-1-yl)phenyl)-6-methyl-[1,2,4]triazolo[1,5-a]pyridin-2-amine dihydrochloride]"
9,390 nM,"COc1cc(Nc2nc3c(-c4cccc(CNS(C)(=O)=O)c4)cc(C)cn3n2)ccc1-n1cnc(C)c1 [Example 98, N-(3-(2-(3-Methoxy-4-(4-methyl-1H-imidazol-1-yl)phenylamino)-6-methyl-[1,2,4]triazolo[1,5-a]pyridin-8-yl)benzyl)methanesulfonamide]"
10,227 nM,"COc1cc(Nc2nc3c(N4CCOCC4)cccn3n2)ccc1-n1cnc(C)c1 [Example 101, N-(3-Methoxy-4-(4-methyl-1H-imidazol-1-yl)phenyl)-8-morpholino-[1,2,4]triazolo[1,5-a]pyridin-2-amine]"
11,356 nM,"CCOC(=O)N1CC=C(c2cc(C)cn3nc(Nc4ccc(-n5cnc(C)c5)c(OC)c4)nc23)CC1 [Example 107, Ethyl 4-(2-(3-methoxy-4-(4-methyl-1H-imidazol-1-yl)phenylamino)-6-methyl-[1,2,4]triazolo[1,5-a]pyridin-8-yl)-5,6-dihydropyridine-1(2H)-carboxylate]"
12,270 nM,"COc1cc(Nc2nc3n(n2)C(c2ccccc2)CCO3)ccc1-n1cnc(C)c1 (stereo not shown) [Example 109, N-(3-Methoxy-4-(4-methyl-1H-imidazol-1-yl)phenyl)-7-phenyl-6,7-dihydro-5H-[1,2,4]triazolo[5,1-b][1,3]oxazin-2-amine]"
13,29 nM,"Cc1cn(-c2ccc(Nc3nc4c(-c5ccc(F)cc5Cl)cccn4n3)cc2F)cn1 [Example 110, 8-(2-chloro-4-fluorophenyl)-N-(3-fluoro-4-(4-methyl-1H-imidazol-1-yl)phenyl)-[1,2,4]triazolo[1,5-a]pyridin-2-amine]"
14,29 nM,"Cc1cn(-c2c(F)cc(Nc3nc4c(-c5ccc(F)cc5Cl)cccn4n3)cc2F)cn1 [Example 111, 8-(2-chloro-4-fluorophenyl)-N-(3,5-difluoro-4-(4-methyl-1H-imidazol-1-yl)phenyl)-[1,2,4]triazolo[1,5-a]pyridin-2-amine]"
15,46 nM,"COc1cc(Nc2nc3c(-c4ccc(F)cc4Cl)cccn3n2)cc(F)c1-n1cnc(C)c1 [Example 112, 8-(2-chloro-4-fluorophenyl)-N-(3-fluoro-5-methoxy-4-(4-methyl-1H-imidazol-1-yl)phenyl)-[1,2,4]triazolo[1,5-a]pyridin-2-amine]"
16,81 nM,"Cc1cn(-c2ccc(Nc3nc4c(-c5ccc(F)cc5Cl)cccn4n3)cc2C#N)cn1 [Example 113, 5-(8-(2-chloro-4-fluorophenyl)-[1,2,4]triazolo[1,5-a]pyridin-2-ylamino)-2-(4-methyl-1H-imidazol-1-yl)benzonitrile]"
17,238 nM,"COc1cc(Nc2nc3c(-c4ccc(F)cc4Cl)cccn3n2)ccc1-c1cc(C)ncn1 [Example 114, 8-(2-chloro-4-fluorophenyl)-N-(3-methoxy-4-(6-methylpyrimidin-4-yl)phenyl)-[1,2,4]triazolo[1,5-a]pyridin-2-amine]"
18,242 nM,"Cc1cc(-c2ccc(Nc3nc4c(-c5ccc(F)cc5Cl)cccn4n3)cc2)nc(C)n1 [Example 115, 8-(2-chloro-4-fluorophenyl)-N-(4-(2,6-dimethylpyrimidin-4-yl)phenyl)-[1,2,4]triazolo[1,5-a]pyridin-2-amine]"
19,117 nM,"COc1cc(Nc2nc3c(-c4ccc(Cl)cc4)ccc(C(C)(C)O)n3n2)ccc1-n1cnc(C)c1 [Example 116, 2-{8-(4-Chloro-phenyl)-2-[3-methoxy-4-(4-methyl-imidazol-1-yl)-phenylamino]-[1,2,4]triazolo[1,5-a]pyridin-5-yl}-propan-2-ol]"
20,65 nM,"COc1cc(Nc2nc3c(-c4ccc(Cl)cc4)cc(C4CC4)cn3n2)ccc1-n1cnc(C)c1 [Example 117, [8-(4-Chloro-phenyl)-6-cyclopropyl-[1,2,4]triazolo[1,5-a]pyridin-2-yl]-[3-methoxy-4-(4-methyl-imidazol-1-yl)-phenyl]-amine]"
21,72 nM,"COc1cc(Nc2nc3c(-c4ccc(F)cc4)cc(C4CC4)cn3n2)ccc1-n1cnc(C)c1 [Example 118, [6-Cyclopropyl-8-(4-fluoro-phenyl)-[1,2,4]triazolo[1,5-a]pyridin-2-yl]-[3-methoxy-4-(4-methyl-imidazol-1-yl)-phenyl]-amine]"
22,31 nM,"COc1cc(Nc2nc3c(-c4ccc(F)cc4)ccc(C(C)(C)O)n3n2)ccc1-n1cnc(C)c1 [Example 119, 2-{8-(4-Fluoro-phenyl)-2-[3-methoxy-4-(4-methyl-imidazol-1-yl)-phenylamino]-[1,2,4]triazolo[1,5-a]pyridin-5-yl}-propan-2-ol]"
23,96 nM,"COc1cc(Nc2nc3c(-c4ccc(F)c(F)c4F)cc(C4CC4)cn3n2)ccc1-n1cnc(C)c1 [Example 120, [6-Cyclopropyl-8-(2,3,4-trifluoro-phenyl)-[1,2,4]triazolo[1,5-a]pyridin-2-yl]-[3-methoxy-4-(4-methyl-imidazol-1-yl)-phenyl]-amine]"
24,76 nM,"COc1cc(Nc2nc3c(-c4ccc(F)cc4Cl)ccc(C(C)(C)O)n3n2)ccc1-n1cnc(C)c1 [Example 121, 2-{8-(2-Chloro-4-fluoro-phenyl)-2-[3-methoxy-4-(4-methyl-imidazol-1-yl)-phenylamino]-[1,2,4]triazolo[1,5-a]pyridin-5-yl}-propan-2-ol]"
25,79 nM,"COc1cc(Nc2nc3c(-c4ccc(F)c(F)c4F)ccc(C(C)(C)O)n3n2)ccc1-n1cnc(C)c1 [Example 122, 2-[2-[3-Methoxy-4-(4-methyl-imidazol-1-yl)-phenylamino]-8-(2,3,4-trifluoro-phenyl)-[1,2,4]triazolo[1,5-a]pyridin-5-yl]-propan-2-ol]"
26,29 nM,"COc1cc(Nc2nc3c(-c4ccc(F)c(Cl)c4)ccc(C(C)(C)O)n3n2)ccc1-n1cnc(C)c1 [Example 123, 2-{8-(3-Chloro-4-fluoro-phenyl)-2-[3-methoxy-4-(4-methyl-imidazol-1-yl)-phenylamino]-[1,2,4]triazolo[1,5-a]pyridin-5-yl}-propan-2-ol]"
27,357 nM,"COc1cc(Nc2nc3n(n2)C(c2ccc(F)cc2)CN(C)C3)ccc1-n1cnc(C)c1 (stereo not shown) [Example 124, 5-(4-fluorophenyl)-N-(3-methoxy-4-(4-methyl-1H-imidazol-1-yl)phenyl)-7-methyl-5,6,7,8-tetrahydro-[1,2,4]triazolo[1,5-a]pyrazin-2-amine]"
28,50 nM,"COc1cc(Nc2nc3c(-c4ccc(Cl)cc4)cccn3n2)ccc1-n1cnc(C)c1 [Example 125, [8-(4-Chloro-phenyl)-[1,2,4]triazolo[1,5-a]pyridin-2-yl]-[3-methoxy-4-(4-methyl-imidazol-1-yl)-phenyl]-amine]"
29,32 nM,"COc1cc(Nc2nc3c(-c4ccc(F)c(F)c4)cccn3n2)ccc1-n1cnc(C)c1 [Example 126, [8-(3,4-Difluoro-phenyl)-[1,2,4]triazolo[1,5-a]pyridin-2-yl]-[3-methoxy-4-(4-methyl-imidazol-1-yl)-phenyl]-amine]"
30,39 nM,"COc1cc(Nc2nc3c(-c4ccc(Cl)cc4)cccn3n2)ccc1-c1ccnc(C)c1 [Example 127, [8-(4-Chloro-phenyl)-[1,2,4]triazolo[1,5-a]pyridin-2-yl]-[3-methoxy-4-(2-methyl-pyridin-4-yl)-phenyl]-amine]"

row,Structure (SMILES),EC50
1,"COc1cc(Nc2nc3c(C4=CCN(CC#N)CC4)cc(C)cn3n2)ccc1-n1cnc(C)c1 [Example 108, 2-(4-(2-(3-Methoxy-4-(4-methyl-1H-imidazol-1-yl)phenylamino)-6-methyl-[1,2,4]triazolo[1,5-a]pyridin-8-yl)-5,6-dihydropyridin-1(2H)-yl)acetonitrile]",488 nM
